This note sets out measurements from PMC6010057, “Synthesis, carbonic anhydrase I and II inhibition studies of the 1,3,5-trisubstituted-pyrazolines” (Journal of Enzyme Inhibition and Medicinal Chemistry, 2016).

For orientation: IC50 means the concentration at which inhibition is half-maximal. As a reminder, the Ki is the equilibrium dissociation constant of an inhibitor or competing ligand from its target. A low value points to higher affinity.

The target of one test is hCA I (Homo sapiens, UniProt P00915). Put plainly: biochemical.
A further test addresses hCA II (Homo sapiens, UniProt P00918). Nature of the test: biochemical.

hCA I, sequence (P00915 whole entry): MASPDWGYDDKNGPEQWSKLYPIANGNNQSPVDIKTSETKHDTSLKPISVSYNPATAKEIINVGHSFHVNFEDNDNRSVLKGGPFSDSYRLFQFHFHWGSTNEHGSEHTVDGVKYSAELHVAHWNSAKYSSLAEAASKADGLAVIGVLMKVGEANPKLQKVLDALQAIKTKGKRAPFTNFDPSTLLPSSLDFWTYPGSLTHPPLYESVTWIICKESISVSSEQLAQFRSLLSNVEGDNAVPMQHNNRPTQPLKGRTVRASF

At hCA I, `NS(=O)(=O)c1ccc(N2N=C(c3ccccc3)CC2c2ccccc2)cc1` (stereo not shown) [Compound 9, 4-(3,5-Diphenyl-4,5-dihydro-1H-pyrazol-1-yl)benzenesulfonamide] came in with an IC50 of 555 nM and a Ki of 506 ± 133 nM. Further, on hCA II, the IC50 worked out at 586 nM and the Ki came to 625 ± 168 nM.
On hCA I, `COc1ccc(C2=NN(c3ccc(S(N)(=O)=O)cc3)C(c3ccccc3)C2)cc1` (stereo not shown) [Compound 11, 4-(3-(4-Methoxyphenyl)-5-phenyl-4,5-dihydro-1H-pyrazol-1-yl)benzenesulfonamide] displayed an IC50 of 484 nM and a Ki of 533 ± 188 nM. At hCA II, the IC50 amounted to 486 nM and affinity was put at a Ki of 469 ± 63 nM.
`NS(=O)(=O)c1ccc(N2N=C(c3ccc(Cl)cc3)CC2c2ccccc2)cc1` (stereo not shown) [Compound 12, 4-(3-(4-Chlorophenyl)-5-phenyl-4,5-dihydro-1H-pyrazol-1-yl)benzenesulfonamide]: at hCA I, the midpoint of inhibition, the IC50, lay at 403 nM and the Ki is 378 ± 114 nM. At hCA II, this compound gave a concentration for half-maximal inhibition (IC50) of 559 nM and a Ki of 521 ± 132 nM.
The like results for `NS(=O)(=O)c1ccc(N2N=C(c3ccc(F)cc3)CC2c2ccccc2)cc1` (stereo not shown) [Compound 13, 4-(3-(4-Fluorophenyl)-5-phenyl-4,5-dihydro-1H-pyrazol-1-yl)benzenesulfonamide] were, in that order, 493 nM, 462 ± 134 nM, 536 nM and 587 ± 188 nM.
In the same order, the values of `NS(=O)(=O)c1ccc(N2N=C(c3ccc(Br)cc3)CC2c2ccccc2)cc1` (stereo not shown) [Compound 14, 4-(3-(4-Bromophenyl)-5-phenyl-4,5-dihydro-1H-pyrazol-1-yl)benzenesulfonamide] are 405 nM, 317 ± 9.6 nM, 470 nM and 412 ± 115 nM.
The like results for `NS(=O)(=O)c1ccc(N2N=C(c3ccc([N+](=O)[O-])cc3)CC2c2ccccc2)cc1` (stereo not shown) [Compound 15, 4-(3-(4-Nitrophenyl)-5-phenyl-4,5-dihydro-1H-pyrazol-1-yl)benzenesulfonamide] were, in that order, 416 nM, 326 ± 29.4 nM, 534 nM and 430 ± 87.3 nM.
With `NS(=O)(=O)c1ccc(N2N=C(c3ccc(O)cc3)CC2c2ccccc2)cc1` (stereo not shown) [Compound 16, 4-(3-(4-Hydroxyphenyl)-5-phenyl-4,5-dihydro-1H-pyrazol-1-yl)benzenesulfonamide], the IC50 against hCA I came out at 528 nM; against hCA II, 459 nM. The Ki at hCA I came out at 472 ± 57.5 nM; on hCA II, 592 ± 134 nM.
